Source: patent US12024531B2, “Immunoproteasome inhibitors” (Principia Biopharma Inc., priority 2017, dated 2024)

What was measured:
Assay type in all cases: biochemical
[1] = molecular target: immunoproteasome LMP7/B5i subunit (Homo sapiens, UniProt P28062); assay: Caliper-based proteasome enzymatic activity assay, LMP7; conditions: human recombinant immunoproteasome 0.3 nM, FAM peptide substrate 1 μM, rt 3 h
[2] = molecular target: constitutive proteasome β5c subunit (Homo sapiens, UniProt P28074); assay: Caliper-based proteasome enzymatic activity assay, β5c; conditions: human recombinant constitutive proteasome 0.3 nM, FAM peptide substrate 1 μM, rt 3 h
[3] = molecular target: immunoproteasome LMP2 subunit (Homo sapiens, UniProt P28065); assay: Caliper-based proteasome enzymatic activity assay, LMP2; conditions: human recombinant immunoproteasome 0.3 nM, FAM peptide substrate 1 μM, rt 2 h

Row | SMILES | IC50 [1] | IC50 [2] | IC50 [3]
1 | CN(C)C(=O)C(C#N)=Cc1cccc(CCOC(=O)N[C@@H](Cc2coc3ccccc23)B(O)O)c1 [Example 53, (R)-(2-(benzofuran-3-yl)-1-(((3-(2-cyano-3-(dimethylamino)-3-oxoprop-1-en-1-yl)phenethoxy)carbonyl)amino)ethyl)boronic Acid] | 1 nM | 212 nM | > 5000 nM
2 | N#CC(=Cc1cccc(CCOC(=O)N[C@@H](Cc2ccccc2)B(O)O)c1)c1ccc(C(F)(F)F)cn1 [Example 56, (R)-(1-(((3-(2-cyano-2-(5-(trifluoromethyl)pyridin-2-yl)vinyl)phenethoxy)carbonyl)amino)-2-phenylethyl)boronic Acid] | 3.8 nM | 439 nM | 1770 nM
3 | Cc1ccc(C[C@H](NC(=O)OCCc2cccc(C=C(C#N)c3ccccn3)c2)B(O)O)cc1 [Example 57, (R)-(1-(((3-(2-cyano-2-(pyridin-2-yl)vinyl)phenethoxy)carbonyl)amino)-2-(p-tolyl)ethyl)boronic Acid] | 1.8 nM | 188 nM | > 5000 nM
4 | N#CC(=Cc1cccc(CCOC(=O)N[C@@H](Cc2ccccc2)B(O)O)c1)c1ccncn1 [Example 59, (R)-(1-(((3-(2-cyano-2-(pyrimidin-4-yl)vinyl)phenethoxy)carbonyl)amino)-2-phenylethyl)boronic Acid] | 0.9 nM | 354 nM | 544 nM
5 | CCN(CC)C(=O)C(C#N)=Cc1cccc(CCNC(=O)N[C@@H](Cc2ccccc2)B(O)O)c1 [Example 61, (R)-(1-(3-(3-(2-cyano-3-(diethylamino)-3-oxoprop-1-en-1-yl)phenethyl)ureido)-2-phenylethyl)boronic Acid] | 43.2 nM | > 5000 nM | > 5000 nM
6 | N#CC(=Cc1cccc(CCNC(=O)N[C@@H](Cc2ccccc2)B(O)O)c1)c1ccccn1 [Example 62, (R)-(1-(3-(3-(2-cyano-2-(pyridin-2-yl)vinyl)phenethyl)ureido)-2-phenylethyl)boronic Acid] | 186 nM | > 5000 nM | > 5000 nM
7 | N#CC(=Cc1cccc(CCOC(=O)N[C@@H](Cc2ccccc2)B(O)O)c1)c1cnccn1 [Example 63, (R)-(1-(((3-(2-cyano-2-(pyrazin-2-yl)vinyl)phenethoxy)carbonyl)amino)-2-phenylethyl)boronic Acid] | 1.4 nM | 556 nM | 1510 nM
8 | CCN(C(=O)C(C#N)=Cc1cccc(CCOC(=O)N[C@@H](Cc2ccccc2)B(O)O)c1)C(C)C [Example 64, (R)-(1-(((3-(2-cyano-3-(ethyl(isopropyl)amino)-3-oxoprop-1-en-1-yl)phenethoxy)carbonyl)amino)-2-phenylethyl)boronic Acid] | 2.5 nM | 1920 nM | 4540 nM
9 | C[C@@H]1COC[C@@H](C)N1C(=O)C(C#N)=Cc1cccc(CCOC(=O)N[C@@H](Cc2ccccc2)B(O)O)c1 [Example 65, ((R)-1-(((3-(2-cyano-3-((3R,5R)-3,5-dimethylmorpholino)-3-oxoprop-1-en-1-yl)phenethoxy)carbonyl)amino)-2-phenylethyl)boronic Acid] | 0.6 nM | 1190 nM | 3560 nM
10 | N#CC(=Cc1ccc2c(c1)CN(CC(=O)N[C@@H](Cc1ccccc1)B(O)O)CC2)c1ccccn1 [Example 66, (R)-(1-(2-(7-(2-cyano-2-(pyridin-2-yl)vinyl)-3,4-dihydroisoquinolin-2(1H)-yl)acetamido)-2-phenylethyl)boronic Acid] | 4.6 nM | 33.3 nM | 74.4 nM
11 | C[C@H]1COC[C@H](C)N1C(=O)C(C#N)=Cc1cccc(CCOC(=O)N[C@@H](Cc2ccccc2)B(O)O)c1 [Example 68, ((R)-1-(((3-(2-cyano-3-((3S,5S)-3,5-dimethylmorpholino)-3-oxoprop-1-en-1-yl)phenethoxy)carbonyl)amino)-2-phenylethyl)boronic Acid] | 0.7 nM | > 5000 nM | > 5000 nM
12 | CCN(C(=O)C(C#N)=Cc1cccc(CCOC(=O)N[C@@H](Cc2ccccc2)B(O)O)c1)C(C)(C)C [Example 69, (R)-(1-(((3-(3-(tert-butyl(ethyl)amino)-2-cyano-3-oxoprop-1-en-1-yl)phenethoxy)carbonyl)amino)-2-phenylethyl)boronic Acid] | 2.2 nM | 3020 nM | 3190 nM
13 | CN(C(=O)C(C#N)=Cc1cccc(CCOC(=O)N[C@@H](Cc2ccccc2)B(O)O)c1)C(C)(C)C [Example 71, (R)-(1-(((3-(3-(tert-butyl(methyl)amino)-2-cyano-3-oxoprop-1-en-1-yl)phenethoxy)carbonyl)amino)-2-phenylethyl)boronic Acid] | 0.9 nM | 2420 nM | 2010 nM
14 | N#CC(=Cc1cccc(CCOC(=O)N[C@@H](Cc2ccccc2)B(O)O)c1)C(=O)N(C1CCOCC1)C1CCOCC1 [Example 72, (R)-(1-(((3-(3-(bis(tetrahydro-2H-pyran-4-yl)amino)-2-cyano-3-oxoprop-1-en-1-yl)phenethoxy)carbonyl)amino)-2-phenylethyl)boronic Acid] | 1.4 nM | > 5000 nM | > 5000 nM
15 | N#CC(=Cc1cccc(CCNC(=O)N[C@@H](Cc2ccccc2)B(O)O)c1)c1ccc(C(F)(F)F)cn1 [Example 73, (R)-(1-(3-(3-(2-cyano-2-(5-(trifluoromethyl)pyridin-2-yl)vinyl)phenethyl)ureido)-2-phenylethyl)boronic Acid] | 66.4 nM | 1900 nM | 2000 nM
16 | N#CC(=Cc1cc(CO)cc(CCOC(=O)N[C@@H](Cc2ccccc2)B(O)O)c1)c1ccccn1 [Example 76, (R)-(1-(((3-(2-cyano-2-(pyridin-2-yl)vinyl)-5-(hydroxymethyl)phenethoxy)carbonyl)amino)-2-phenylethyl)boronic Acid] | 3.2 nM | 3410 nM | > 5000 nM
17 | Cc1ccc(C[C@H](NC(=O)NCCc2cccc(C=C(C#N)c3ccccn3)c2)B(O)O)cc1 [Example 77, (R)-(1-(3-(3-(2-cyano-2-(pyridin-2-yl)vinyl)phenethyl)ureido)-2-(p-tolyl)ethyl)boronic Acid] | 42 nM | 2150 nM | > 5000 nM
18 | N#CC(=Cc1cccc(CCOC(=O)N[C@@H](Cc2ccccc2)B(O)O)c1)c1ccc(C#N)cn1 [Example 78, (R)-(1-(((3-(2-cyano-2-(5-cyanopyridin-2-yl)vinyl)phenethoxy)carbonyl)amino)-2-phenylethyl)boronic Acid] | 1.6 nM | 390 nM | 690 nM
19 | CC1(C)COCCN1C(=O)C(C#N)=Cc1cccc(CCOC(=O)N[C@@H](Cc2ccccc2)B(O)O)c1 [Example 79, (R)-(1-(((3-(2-cyano-3-(3,3-dimethylmorpholino)-3-oxoprop-1-en-1-yl)phenethoxy)carbonyl)amino)-2-phenylethyl)boronic Acid] | 0.9 nM | 998 nM | 1600 nM
20 | Cc1ccc(C[C@H](NC(=O)NCCc2cccc(C=C(C#N)c3ccc(C(F)(F)F)cn3)c2)B(O)O)cc1 [Example 80, (R)-(1-(3-(3-(2-cyano-2-(5-(trifluoromethyl)pyridin-2-yl)vinyl)phenethyl)ureido)-2-(p-tolyl)ethyl)boronic Acid] | 43 nM | 2570 nM | > 5000 nM
21 | Cc1ccc(C[C@H](NC(=O)OCCc2cccc(C=C(C#N)c3ccc(C(F)(F)F)cn3)c2)B(O)O)cc1 [Example 81, (R)-(1-(((3-(2-cyano-2-(5-(trifluoromethyl)pyridin-2-yl)vinyl)phenethoxy)carbonyl)amino)-2-(p-tolyl)ethyl)boronic Acid] | 5.2 nM | 438 nM | 2830 nM
22 | CCN(CC)C(=O)C(C#N)=Cc1cccc(CCNC(=O)N[C@@H](Cc2ccc(C)cc2)B(O)O)c1 [Example 82, (R)-(1-(3-(3-(2-cyano-3-(diethylamino)-3-oxoprop-1-en-1-yl)phenethyl)ureido)-2-(p-tolyl)ethyl)boronic Acid] | 24 nM | > 5000 nM | > 5000 nM
23 | Cc1ccc(C[C@H](NC(=O)NCCc2cccc(C=C(C#N)c3ncccn3)c2)B(O)O)cc1 [Example 83, (R)-(1-(3-(3-(2-cyano-2-(pyrimidin-2-yl)vinyl)phenethyl)ureido)-2-(p-tolyl)ethyl)boronic Acid] | 37 nM | 1970 nM | > 5000 nM
24 | Cn1cnc(C(C#N)=Cc2cccc(CCOC(=O)N[C@@H](Cc3ccccc3)B(O)O)c2)cc1=O [Example 84, (R)-(1-(((3-(2-cyano-2-(1-methyl-6-oxo-1,6-dihydropyrimidin-4-yl)vinyl)phenethoxy)carbonyl)amino)-2-phenylethyl)boronic Acid] | 1.9 nM | 240 nM | 2020 nM
25 | Cc1ccc(C[C@H](NC(=O)OCCc2cccc(C=C(C#N)C(=O)N3[C@H](C)COC[C@H]3C)c2)B(O)O)cc1 [Example 85, ((R)-1-(((3-(2-cyano-3-((3R,5R)-3,5-dimethylmorpholino)-3-oxoprop-1-en-1-yl)phenethoxy)carbonyl)amino)-2-(p-tolyl)ethyl)boronic Acid] | 1.1 nM | 1170 nM | > 5000 nM
26 | CCN(CC)C(=O)C(C#N)=Cc1cccc(CCOC(=O)N[C@@H](Cc2ccc(Cl)cc2)B(O)O)c1 [Example 86, (R)-(2-(4-chlorophenyl)-1-(((3-(2-cyano-3-(diethylamino)-3-oxoprop-1-en-1-yl)phenethoxy)carbonyl)amino)ethyl)boronic Acid] | 0.9 nM | 779 nM | > 5000 nM
27 | Cc1ccc(C[C@H](NC(=O)OCCc2cccc(C=C(C#N)c3ncccn3)c2)B(O)O)cc1 [Example 87, (R)-(1-(((3-(2-cyano-2-(pyrimidin-2-yl)vinyl)phenethoxy)carbonyl)amino)-2-(p-tolyl)ethyl)boronic Acid] | 1.6 nM | 197 nM | > 5000 nM
